pEC50: −log10 of the molar value. Activity calls are given as the source filed them. No cut-off for these calls is given here.
How the values were obtained:
Hepatitis B virus [1] = test: Antiviral activity against HBV infected human HePAD38 cells assessed as reduction in HBsAg level in cell supernatant at 0.625 to 10 uM and measured after 6 days by ELISA analysis; assay type: functional, organism-based; settings: dose 0.625-10 µM, time 6.0 day
Hepatitis B virus [2] = test: Antiviral activity against HBV genotype A infected in human HepG2 cells assessed as inhibition of viral replication; assay type: functional, organism-based
[3] = Hepatotoxicity in C57BL/6 mouse assessed as effect on AST level in serum at 30 mg/kg, po BID measured for 12 days; assay type: toxicity, organism-based; settings: in vivo, 288 h, time 12 day
Hepatitis B virus [4] = test: Antiviral activity against HBV infected in human HePAD38 assessed as reduction on HBsAg level at 20 uM by ELISA analysis relative to control; assay type: functional; design: scale not given: the % may be the effect or the level left
[5] = Hepatotoxicity in C57BL/6 mouse assessed as effect on AST level in serum at 100 mg/kg, po BID measured for 12 days; assay type: toxicity, organism-based; settings: in vivo, 288 h, time 12 day
Hepatitis B virus [6] = test: Antiviral activity against HBV infected in transgenic C57BL/6 mouse assessed as reduction in intrahepatic 3.5 kb HBV RNA level at 100 mg/kg, po BID measured for 12 days by RT-PCR analysis; assay type: functional, organism-based; settings: time 12.0 day
Hepatitis B virus [7] = test: Antiviral activity against wild type HBV infected in human HepG2 cells assessed as inhibition of viral replication; assay type: functional, organism-based
[8] = Toxicity in C57BL/6 mouse assessed as histopathological changes in liver at 30 mg/kg, po measured after 12 days by H and E staining analysis; assay type: organism-based; settings: in vivo, 288 h, time 12 day
Hepatitis B virus [9] = test: Antiviral activity against HBV infected in transgenic C57BL/6 mouse assessed as inhibition of viral replication by measuring log reduction in serum HBV DNA level at 30 mg/kg, po BID measured for 12 days by RT-PCR analysis; assay type: functional; settings: time 12 day
[10] = Hepatotoxicity in C57BL/6 mouse assessed as effect on ALT level in serum at 100 mg/kg, po BID measured for 12 days; assay type: toxicity, organism-based; settings: in vivo, 288 h, time 12 day
[11] = Cytotoxicity against human HepAD38 cells assessed as reduction in cell viability incubated for 6 days by CCK-8 assay; assay type: functional; settings: HePAD38, 144 h, time 6 day
Hepatitis B virus [12] = test: Antiviral activity against HBV infected in transgenic C57BL/6 mouse assessed as reduction in intrahepatic 3.5 kb HBV RNA level at 30 mg/kg, po BID measured for 12 days by RT-PCR analysis; assay type: functional, organism-based; settings: time 12.0 day
Hepatitis B virus [13] = test: Antiviral activity against HBV infected in transgenic C57BL/6 mouse assessed as reduction in serum HBsAg level at 100 mg/kg, po BID measured for 12 days by ELISA analysis; assay type: functional, organism-based; settings: time 12.0 day
Hepatitis B virus [14] = test: Antiviral activity against HBV infected in human HePAD38 cells assessed as reduction in intracellular 3.5 Kb HBV RNA level at 0.625 to 10 uM and incubated for 6 days by Northern blot analysis; assay type: functional, organism-based; settings: dose 0.625-10 µM, time 6.0 day
Hepatitis B virus [15] = test: Antiviral activity against HBV infected in human HePAD38 cells assessed as reduction in intracellular 3.5 Kb HBV RNA level at 0.625 to 10 uM and incubated for 6 days by real-time PCR analysis; assay type: functional, organism-based; settings: dose 0.625-10 µM, time 6.0 day
Hepatitis B virus [16] = test: Antiviral activity against HBV infected in human HePAD38 cells assessed as decay of viral capsid protein by agarose gel electrophoresis-based assay; assay type: functional, organism-based
Hepatitis B virus [17] = test: Antiviral activity against HBV infected in transgenic C57BL/6 mouse assessed as inhibition of viral replication by measuring log reduction in liver HBV DNA level at 100 mg/kg, po BID measured for 12 days by RT-PCR analysis; assay type: functional; settings: time 12 day
Hepatitis B virus [18] = test: Antiviral activity against HBV infected in human HePAD38 assessed as reduction on HBeAg level at 20 uM by ELISA analysis relative to control; assay type: functional; design: scale not given: the % may be the effect or the level left
Hepatitis B virus [19] = test: Antiviral activity against HBV infected in transgenic C57BL/6 mouse assessed as reduction in serum HBsAg level at 30 mg/kg, po BID measured for 12 days by ELISA analysis; assay type: functional, organism-based; settings: time 12.0 day
[20] = Selectivity index, ratio of CC50 for cytotoxicity against human HepAD38 cells to EC50 for antiviral activity against HBV infected in human HePAD38 cells; assay type: toxicity, cell-based; settings: read-out: Ratio CC50/EC50
Hepatitis B virus [21] = test: Antiviral activity against HBV infected in human HePAD38 cells assessed as decay of viral core protein by agarose gel electrophoresis-based assay; assay type: functional, organism-based
Hepatitis B virus [22] = test: Antiviral activity against HBV infected in human HePAD38 cells assessed as reduction in HBV core DNA level and incubated for 6 days by southern blot analysis; assay type: functional, organism-based; settings: dose 0.625-10 µM, time 6.0 day
Hepatitis B virus [23] = test: Antiviral activity against ETV-resistant HBV infected in human HepG2 cells assessed as inhibition of viral replication; assay type: functional, organism-based
Hepatitis B virus [24] = test: Antiviral activity against HBV infected in human HePAD38 cells assessed as reduction in capsid formation at 0.625 to 10 uM measured for 6 days by agarose gel electrophoresis-based assay; assay type: functional, organism-based; settings: dose 0.625-10 µM, time 6.0 day
Hepatitis B virus [25] = test: Antiviral activity against HBV infected in human HePAD38 cells assessed as reduction in […] level upto10 uM measured for 6 days by agarose gel electrophoresis-based assay; assay type: functional, organism-based; settings: dose 10.0 µM, time 6.0 day
[26] = Hepatotoxicity in C57BL/6 mouse assessed as effect on ALT level in serum at 30 mg/kg, po BID measured for 12 days; assay type: toxicity, organism-based; settings: in vivo, 288 h, time 12 day
Hepatitis B virus [27] = test: Antiviral activity against HBV infected in human HePAD38 cells assessed as reduction in intracellular core HBV DNA level at 20 uM incubated for 6 days by qPCR analysis relative to control; assay type: functional; design: scale not given: the % may be the effect or the level left; settings: time 6 day
Hepatitis B virus [28] = test: Antiviral activity against HBV infected in transgenic C57BL/6 mouse assessed as reduction in serum HBeAg level at 100 mg/kg, po BID measured for 12 days by ELISA analysis; assay type: functional, organism-based; settings: time 12.0 day
Hepatitis B virus [29] = test: Antiviral activity against HBV infected in transgenic C57BL/6 mouse assessed as reduction in serum HBeAg level at 30 mg/kg, po BID measured for 12 days by ELISA analysis; assay type: functional, organism-based; settings: time 12.0 day
Hepatitis B virus [30] = test: Antiviral activity against HBV infected human HePAD38 cells assessed as reduction in HBeAg level in cell supernatant at 0.625 to 10 uM and measured after 6 days by ELISA analysis; assay type: functional, organism-based; settings: dose 0.625-10 µM, time 6.0 day
Hepatitis B virus [31] = test: Antiviral activity against HBV infected in human HePAD38 cells assessed as reduction in encapsidated pgRNA at 0.625 to 10 uM incubated for 6 days by northern blot analysis; assay type: functional, organism-based; settings: dose 0.625-10 µM, time 6.0 day
Hepatitis B virus [32] = test: Effect on capsid morphology in human HePAD38 cells infected with Hepatitis B virus at 5 uM incubated for 6 days by immunofluorescence analysis; assay type: functional, organism-based; settings: time 6.0 day
Hepatitis B virus [33] = test: Antiviral activity against HBV infected in transgenic C57BL/6 mouse assessed as inhibition of viral replication by measuring log reduction in serum HBV DNA level at 100 mg/kg, po BID measured for 12 days by RT-PCR analysis; assay type: functional; settings: time 12 day
Hepatitis B virus [34] = test: Antiviral activity against HBV genotype B infected in human HepG2 cells assessed as inhibition of viral replication; assay type: functional, organism-based
Hepatitis B virus [35] = test: Antiviral activity against HBV infected in human HepAD38 cells assessed as effect on capsid morphology at 20 uM incubated for 3 to 7 days by transmission electron microscopy; assay type: functional, organism-based; settings: time 3-7 day
Hepatitis B virus [36] = test: Antiviral activity against HBV genotype D infected in human HepG2 cells assessed as inhibition of viral replication; assay type: functional, organism-based
Hepatitis B virus [37] = test: Antiviral activity against HBV infected in human HePAD38 cells assessed as reduction of capsid associated HBV DNA; assay type: functional, organism-based
Hepatitis B virus [38] = test: Antiviral activity against HBV infected in transgenic C57BL/6 mouse assessed as inhibition of viral replication by measuring log reduction in liver HBV DNA level at 30 mg/kg, po BID measured for 12 days by RT-PCR analysis; assay type: functional; settings: time 12 day
Hepatitis B virus [39] = test: Antiviral activity against HBV infected in human HePAD38 cells assessed as reduction in capsid formation upto 10 uM measured for 6 days by agarose gel electrophoresis-based assay; assay type: functional, organism-based; settings: time 6.0 day
[40] = Toxicity in C57BL/6 mouse assessed as histopathological changes in liver at 100 mg/kg, po measured after 12 days by H and E staining analysis; assay type: organism-based; settings: in vivo, 288 h, time 12 day
Hepatitis B virus [41] = test: Antiviral activity against HBV genotype C infected in human HepG2 cells assessed as inhibition of viral replication; assay type: functional, organism-based
Hepatitis B virus [42] = test: Antiviral activity against HBV infected in human HePAD38 cells assessed as reduction in capsid formation measured for 6 days by agarose gel electrophoresis-based assay; assay type: functional, organism-based; settings: time 6.0 day

CCOC(=O)c1c(S(=O)(=O)N2CCC[C@H](C(=O)Nc3ccc(F)c(C)c3)C2)c(C)n(CC(F)(F)F)c1C
Activity (Hepatitis B virus [1]): inactive | pEC50 (Hepatitis B virus [2]): 6.89 | Activity [3]: Non-Toxic | Activity (Hepatitis B virus [4]): 101.8% | Activity [5]: Non-Toxic | Activity (Hepatitis B virus [6]): Active | pEC50 (Hepatitis B virus [7]): 8.51 | Activity [8]: Non-Toxic | log(activity) (Hepatitis B virus [9]): 1.37 | Activity [10]: Non-Toxic | CC50 [11]: 82300 nM | Activity (Hepatitis B virus [12]): Active | Activity (Hepatitis B virus [13]): inactive | Activity (Hepatitis B virus [14]): Active | Activity (Hepatitis B virus [15]): Active | Activity (Hepatitis B virus [16]): inactive | log(activity) (Hepatitis B virus [17]): 0.98 | Activity (Hepatitis B virus [18]): 36.9% | Activity (Hepatitis B virus [19]): inactive | selectivity ratio [20]: 775 | Activity (Hepatitis B virus [21]): inactive | Activity (Hepatitis B virus [22]): Dose-Dependent Effect | pEC50 (Hepatitis B virus [23]): 8.14 | Activity (Hepatitis B virus [24]): Active | Activity (Hepatitis B virus [25]): Active | Activity [26]: Non-Toxic | Activity (Hepatitis B virus [27]): 12% | Activity (Hepatitis B virus [28]): Active | Activity (Hepatitis B virus [29]): Active | Activity (Hepatitis B virus [30]): Active | Activity (Hepatitis B virus [31]): Active | Activity (Hepatitis B virus [32]): inactive | log(activity) (Hepatitis B virus [33]): 2.42 | pEC50 (Hepatitis B virus [34]): 6.92 | Activity (Hepatitis B virus [35]): inactive | pEC50 (Hepatitis B virus [36]): 6.62 | pEC50 (Hepatitis B virus [37]): 6.96 | log(activity) (Hepatitis B virus [38]): 0.43 | Activity (Hepatitis B virus [39]): Active | Activity [40]: Non-Toxic | pEC50 (Hepatitis B virus [41]): 6.80 | Activity (Hepatitis B virus [42]): Dose-Dependent Effect
